From patent publication US11571389B2, “Delivery devices and methods for making the same” (THE REGENTS OF THE UNIVERSITY OF MICHIGAN, priority 2016, dated 2023)

Assays:
TRAP5b = test: Serum TRAP5b ELISA three weeks after implantation, Example 2; format: in vivo, C57BL/6 mice
Experimental: (§1) Three weeks after implantation, the mice were anaesthetized with inhalation of isoflurane (2%) and blood was collected by tail blood draw. After centrifuge for 10 minutes at 13000 rpm, serum was separated and kept frozen until biochemical assays were performed. Serum procollagen I N-terminal propeptide (P1NP) (MyBioSource, Inc) and TRAP5b (Novatein Biosciences, Mass.) ELISA immunoassays were performed following the manufacturer's protocols. The ELISA analyses were employed to evaluate the levels of bone biomarkers.

mouse calvarial defect = test: Mouse calvarial critical size defect with nanofibrous scaffold: μCT of new bone 8 weeks after implantation; format: in vivo, C57BL/6 mice; conditions: compared to the control BSA group; μCT and histomorphometry
Experimental: To determine the optimal PTH release mode to ensure desired PTH anabolic action in bone regeneration, the pulsatile PTH delivery device and the continuous PTH delivery device were compared in identical experimental set ups to access the outcomes of bone regeneration in a critical size (2.3 mm in diameter) round defect created in the mouse skull. The BSA loaded pulsatile devices were used as vehicle controls. All animal procedures were performed following a protocol approved by the University of Michigan Institutional Animal Care and Use Committee. C57BL/6 mice were randomly divided into four groups. Animals were anaesthetized with isoflurane (2%) inhalation. The 2.3 mm diameter craniotomy defect centered on the parietal calvarial bone was created using a trephine. A blank nanofibrous scaffold was placed to fill in the defect and a delivery device (pulsatile PTH, continuous PTH, or BSA control device) was placed adjacent to the scaffold with the opening side facing the scaffold (see FIG. 24). […]
For the calvarial bone analysis, the skulls were scanned with a fixed global threshold of 20%. 3D reconstruction of the skull and quantitative analyses were performed. A 2.3 mm-round region of interest centered on the defect was determined and the bone volume (mm^3) (BV) and bone mineral density (BMD) in the area were measured using manufacturer's software (Scanco μCT 100).

[1] = in vivo; cited from earlier work
mouse tibiae = test: Tibiae μCT to assess systemic side effects of local PTH release, Example 2; format: in vivo, C57BL/6 mice; conditions: compared to the BSA control group
Experimental: To determine the optimal PTH release mode to ensure desired PTH anabolic action in bone regeneration, the pulsatile PTH delivery device and the continuous PTH delivery device were compared in identical experimental set ups to access the outcomes of bone regeneration in a critical size (2.3 mm in diameter) round defect created in the mouse skull. The BSA loaded pulsatile devices were used as vehicle controls. All animal procedures were performed following a protocol approved by the University of Michigan Institutional Animal Care and Use Committee. C57BL/6 mice were randomly divided into four groups. Animals were anaesthetized with isoflurane (2%) inhalation. The 2.3 mm diameter craniotomy defect centered on the parietal calvarial bone was created using a trephine. A blank nanofibrous scaffold was placed to fill in the defect and a delivery device (pulsatile PTH, continuous PTH, or BSA control device) was placed adjacent to the scaffold with the opening side facing the scaffold (see FIG. 24).
Rather, PTH was subcutaneously injected for 3 weeks (21 days) using a standard systemic administration dose (40 μg/kg/d). […]
Mouse tibiae from the different groups were examined using μCT to assess the potential systemic side effects of the local PTH releases. […] A region of 0.75 mm right below the growth plate was analyzed to quantify the trabecular bone volume.

[2] = tested on: procollagen I N-terminal propeptide (P1NP); test: Serum P1NP ELISA three weeks after implantation, Example 2; format: in vivo, C57BL/6 mice
Experimental: as §1

Substance: PTH (1-34)
- serum TRAP5b level (bone resorption marker) (TRAP5b): significantly elevated
- bone growth in the nanofibrous scaffold (mouse calvarial defect): significantly promoted
- half-life [1]: 8 min
- tibia trabecular bone volume (mouse tibiae): significantly increased
- serum P1NP level (bone formation marker) [2]: significantly elevated
